Reference: the NIST ThermoML archive (doi:10.1016/j.jct.2016.06.004)

Tests used:
[1] = Ring tensiometer
[2] = xn = mol fraction of the nth substance listed; conditions: Ring tensiometer

C[S+](C)[O-] [dimethyl sulfoxide]
[1]
Conditions | surface tension liquid-gas [mN/m]
298.15 K | 42.43
308.15 K | 41.3
318.15 K | 40.17
328.15 K | 39.08

C[S+](C)[O-] [dimethyl sulfoxide] + CC(C)O
surface tension liquid-gas [mN/m], [2]
Conditions | 298.15 K | 308.15 K | 318.15 K | 328.15 K
x2 = 0 | 42.43 | 41.3 | 40.17 | 39.08
x2 = 0.044 | 39.17 | 38.58 | 37.9 | 36.91
x2 = 0.085 | 36.42 | 35.88 | 34.99 | 34.12
x2 = 0.157 | 33.83 | 32.83 | 32.05 | 31.15
x2 = 0.245 | 30.89 | 30.21 | 29.55 | 28.39
x2 = 0.338 | 28.56 | 27.7 | 27.02 | 26
x2 = 0.441 | 26.67 | 25.88 | 25.19 | 24.1
x2 = 0.537 | 25.15 | 24.46 | 23.87 | 22.79
x2 = 0.619 | 24.19 | 23.39 | 22.81 | 21.74
x2 = 0.676 | 23.19 | 22.84 | 22.06 | 21.08
x2 = 0.719 | 23.03 | 22.48 | 21.67 | 20.72
x2 = 0.751 | 22.84 | 22.21 | 21.43 | 20.45
x2 = 0.86 | 22 | 21.21 | 20.51 | 19.59

C[S+](C)[O-] [dimethyl sulfoxide] + CCO
surface tension liquid-gas [mN/m], [2]
Conditions | 298.15 K | 308.15 K | 318.15 K | 328.15 K
x2 = 0 | 42.43 | 41.3 | 40.17 | 39.08
x2 = 0.087 | 39.25 | 38.32 | 37.35 | 36.37
x2 = 0.174 | 36.69 | 35.75 | 34.88 | 33.99
x2 = 0.261 | 34.4 | 33.6 | 32.69 | 31.87
x2 = 0.348 | 32.29 | 31.5 | 30.73 | 29.99
x2 = 0.435 | 30.48 | 29.71 | 28.95 | 28.22
x2 = 0.522 | 28.84 | 28.08 | 27.33 | 26.61
x2 = 0.609 | 27.34 | 26.58 | 25.83 | 25.21
x2 = 0.696 | 26.04 | 25.22 | 24.44 | 23.64
x2 = 0.783 | 24.63 | 23.91 | 23.14 | 22.36
x2 = 0.87 | 23.4 | 22.7 | 21.91 | 21.07

C[S+](C)[O-] [dimethyl sulfoxide] + CO
surface tension liquid-gas [mN/m], [2]
Conditions | 298.15 K | 308.15 K | 318.15 K | 328.15 K
x2 = 0 | 42.43 | 41.3 | 40.17 | 39.08
x2 = 0.077 | 41.31 | 40.2 | 39.15 | 38.06
x2 = 0.154 | 40.03 | 38.95 | 37.91 | 36.84
x2 = 0.231 | 38.59 | 37.54 | 36.58 | 35.55
x2 = 0.308 | 37.1 | 36.16 | 35.2 | 34.25
x2 = 0.384 | 35.6 | 34.69 | 33.78 | 32.84
x2 = 0.462 | 34.07 | 33.18 | 32.31 | 31.45
x2 = 0.538 | 32.46 | 31.62 | 30.79 | 29.96
x2 = 0.615 | 30.84 | 30.03 | 29.22 | 28.41
x2 = 0.693 | 29.2 | 28.38 | 27.56 | 26.79
x2 = 0.769 | 27.5 | 26.69 | 25.84 | 24.96
x2 = 0.846 | 25.77 | 24.89 | 24.2 | 23.31
x2 = 0.9 | 24.56 | 23.67 | 22.88 | 21.94

CCO [ethanol]
[1]
Conditions | surface tension liquid-gas [mN/m]
298.15 K | 21.66
308.15 K | 21.01
318.15 K | 20.19
328.15 K | 19.23

CCO [ethanol] + C[S+](C)[O-]
[2], x1 = 1
Conditions | surface tension liquid-gas [mN/m]
298.15 K | 21.66
308.15 K | 21.01
318.15 K | 20.19
328.15 K | 19.23

CO [methanol]
[1]
Conditions | surface tension liquid-gas [mN/m]
298.15 K | 22.24
308.15 K | 21.41
318.15 K | 20.53
328.15 K | 19.54

CO [methanol] + C[S+](C)[O-]
[2], x1 = 1
Conditions | surface tension liquid-gas [mN/m]
298.15 K | 22.24
308.15 K | 21.41
318.15 K | 20.53
328.15 K | 19.54

CC(C)O [propan-2-ol]
[1]
Conditions | surface tension liquid-gas [mN/m]
298.15 K | 21.15
308.15 K | 20.29
318.15 K | 19.53
328.15 K | 18.51

CC(C)O [propan-2-ol] + C[S+](C)[O-]
[2], x1 = 1
Conditions | surface tension liquid-gas [mN/m]
298.15 K | 21.15
308.15 K | 20.29
318.15 K | 19.53
328.15 K | 18.51

O [water]
Conditions | surface tension liquid-gas [mN/m]
[1], 298.15 K | 72.05
